Test results from patent US20070243221A1, “ANTI-WRINKLE COMPOSITION” (L'OREAL, priority 2006, published 2007).

Test system: normal human fibroblasts
Assay: Dermo-decontracting effect: spontaneous contraction of equivalent dermis (collagen matrix seeded with normal human fibroblasts)
Type: cell-based
Settings: on average over the duration of the experiment (0, 4, 8 and 24 hours), equivalent dermis surface area
Text: The principle of this test consists in studying the effect of the test product on a model of equivalent dermis consisting of a collagen matrix seeded with normal human fibroblasts.
These conditions are intended to mimic in vitro the dermal contractile phenomena that take place during facial movements. The reason for this is that, under these conditions, the cells spontaneously exert tensile forces that induce a shrinkage of the collagen gel. […] Measurement of this area makes it possible to evaluate the relaxation effects of the substances placed in contact beforehand with the equivalent dermis.
Two series of attached equivalent dermides containing normal human fibroblasts are prepared: a control series without any treatment, and a series treated with the test compound (1 μM). The experiment is repeated three times.
The dermal equivalents are prepared as described in Asselineau et al., Exp. Cell. Res., 1985, 159, 536-539; Models in dermatology, 1987, vol. 3, pp. 1-7, in the following proportions:
The treated equivalent dermis differs from the control equivalent dermis in that 1 μM of the test compound has been added thereto. […]
To do this, a digital image is acquired for each treated or untreated equivalent dermis using a camera (CCD camera—Iris Sony DXC-107P) and the surface area is then calculated on each image by means of an image analysis system (Zeiss Axiovision 3.0). […]

Compound | reduces the contraction of fibroblasts, compared with the control (tested at 1 μM) [%] | reduces the contraction of fibroblasts, compared with the control (tested at 10 μM) [%]
c1ccc(CCCNC2CCN(CCc3ccccc3)CC2)cc1 [compound 1, 1-(2-phenylethyl)-4-[N-(3-phenylpropyl)]aminopiperidine] | 21 | 
CC(NC1CCN(CCc2ccccc2)CC1)c1ccccc1 (centres unmarked) [compound 5, 1-(2-phenylethyl)-4-[N-(1-phenylethyl)]aminopiperidine] |  | 40
